Experimental data taken from US20120282358A1, “ORAL ADMINISTRATION COMPOSITION” (UNITIKA LTD., priority 2007, published 2012).

Experiments:
[1] = tested on: Female mice of KK-Ay/TacJc1 line (diabetes mellitus type II model animal); test: Test Example 1-2: KK-Ay mice on high fat feed, 4 weeks; body weight, triglyceride, abdominal white fat tissue weight; assay type: in vivo; details: 29th day; in comparison with Comparative Example 1-2 and Comparative Example 1-4; FIG. 9
Source text: Female mice of KK-Ay/TacJc1 line (6 weeks of age, manufactured by CLEA Japan Inc.), established as a diabetes mellitus type II model animal, were divided into groups of 6 animals per group, and β-cryptoxanthin (95% in purity, manufactured by SHIKOKU YASHIMA PURE CHEMICALS CO., LTD.) and glucosylceramide (3% in purity, konnyaku ceramide manufactured by UNITIKA, LTD.) were mixed with a high fat feed, at the ratios of 0.2% and 4% respectively, and subjected to free ingestion together with water. As the control group, tests were carried out by providing the mice with a high fat feed (CLEA Rodent Diet Quick Fat, manufactured by CLEA Japan Inc) to which nothing was added (Comparative Example 1-2), the high fat feed to which 0.2% of β-cryptoxanthin alone was added (Comparative Example 1-3) and the high fat feed to which 4% of glucosylceramide alone was added (Comparative Example 1-4).
The administration was carried out for 4 weeks, and body weight and triglyceride content were measured before the administration and on the 7th, 14th, 21st and 28th days after the administration. In addition, the mice were sacrificed on the 29th day after the commencement of administration, and the visceral fats, namely abdominal white fat tissues, were collected and their weights were compared. The results are shown in FIG. 7, FIG. 8 and FIG. 9, respectively.

[2] = tested on: Female mice of KK-Ay/TacJc1 line (diabetes mellitus type II model animal); test: Test Examples 2-1, 2-2, 2-3: KK-Ay mice on high fat feed, 4 weeks; body weight, blood triglyceride, visceral white fat tissue mass; assay type: in vivo; details: for mass of visceral fat (abdominal white fat tissue): 29th day after commencement of administration; for mass of visceral fat (abdominal white fat tissue) / triglyceride content in blood: in comparison with control group; for change in body weight / triglyceride content in blood: mixed in high fat feed, 4 weeks; for change in body weight: measured on 7th, 14th, 21st, 28th days, in comparison with control group (high fat feed alone); for triglyceride content in blood: Triglyceride E-test Wako
Procedure: Female mice of KK-Ay/TacJc1 line (6 weeks of age: manufactured by CLEA Japan Inc.), established as a diabetes mellitus type II model animal, were divided into groups of 6 animals per group, and the composition obtained in Example 1 was mixed with a high fat feed at a ratio of 4% and subjected to free ingestion together with water. The high fat feed alone was allowed to be ingested by the control group.
The administration was carried out for 4 weeks, and the body weight was measured before the administration and on the 7th, 14th, 21st and 28th days after the administration.
Simultaneously with the measurement of body weights of the mice used in Test Example 1-1, blood collection was carried out and the triglyceride content in blood was measured using Triglyceride E-test Wako (manufactured by Wako Pure Chemical Industries, Ltd.) The result is shown in FIG. 11.
The mice used in Test Example 2-1 were sacrificed on the 29th day after commencement of the administration, and collection of the visceral fat, namely white fat tissue, was carried out to compare their mass.

[3] = Applicant's own test of β-cryptoxanthin alone for obesity prevention / fat reduction; details: no details given

Molecule	abdominal fat tissue weight [1]	mass of visceral fat (abdominal white fat tissue) [2]	change in body weight [2]	triglyceride content in blood [2]	action by individual use (obesity prevention / fat reduction) [3]
CC1=C(/C=C/C(C)=C/C=C/C(C)=C/C=C/C=C(C)/C=C/C=C(C)/C=C/C2=C(C)C[C@@H](O)CC2(C)C)C(C)(C)CCC1 [Comparative Example 1-3, β-cryptoxanthin]	significantly reduced				
CC1=C(/C=C/C(C)=C/C=C/C(C)=C/C=C/C=C(C)/C=C/C=C(C)/C=C/C2=C(C)C[C@@H](O)CC2(C)C)C(C)(C)CCC1 [Comparative Example 3, β-cryptoxanthin]		significantly reduced	significantly reduced on the 28th day	significantly reduced on the 21st and 28th days	
CC1=C(/C=C/C(C)=C/C=C/C(C)=C/C=C/C=C(C)/C=C/C=C(C)/C=C/C2=C(C)C[C@@H](O)CC2(C)C)C(C)(C)CCC1 [β-cryptoxanthin]					weak
a-glycosylhesperidin [Comparative Example 4]		reduction of the visceral fat was not found	significant difference was not found	significant difference was not found	
